Source: ChEMBL document CHEMBL2331399, “Purification and characterization of carbonic anhydrase from sheep kidney and effects of sulfonamides on enzyme activity” (Bioorg Med Chem, 2013)

Assay: Inhibition of sheep kidney esterase activity of carbonic anhydrase using 4-nitrophenylacetate as substrate after 3 mins by spectrophotometric analysis
Design: species or system Ovis aries

| SMILES | Ki [µM] |
| --- | --- |
| NS(=O)(=O)c1ccccc1 [BENZENESULFONAMIDE] | 8.66 |
| Nc1ccc(S(N)(=O)=O)cc1 [SULFANILAMIDE] | 69.3 |
| NS(=O)(=O)c1ccccc1Br | 5.87 |

The next compounds have a lower Ki than those just listed; values first:

| Ki [µM] | SMILES |
| --- | --- |
| 2.59 | NS(=O)(=O)c1ccc2ccccc2c1 |
| 1.35 | Cc1ccc(S(N)(=O)=O)cc1 [P-TOLUENESULFONAMIDE] |
